Laboratory results from US12576155B2, “Senolytic and antiinflammatory prodrugs and methods of use thereof” (priority 2019, dated 2026).

How the values were obtained:
[1] = tested on: senescent cells; assay: Flow cytometry of apoptosis (annexin V / propidium iodide) in senescent cells; assay type: cell-based; settings: SSK1-treated senescent cells; after 36 hours of treatment
Experimental: Fibroblasts were digested into single cell suspensions by incubation with 0.25% trypsin-EDTA (Invitrogen) at 37° C. for 3-5 min or with accutase at 37° C. for 10 min. Cells were then stained with FITC annexin V and propidium iodide (PI) according to the manufacturer's protocol (FITC Annexin V Apoptosis Detection Kit I, BD Pharmingen™). For chondrocytes Annexin V/7-AAD analysis, the trypsinized live chondrocytes and floating cells were collected, centrifuged and washed with PBS. Cells were stained with the Annexin V Apoptosis Detection Kit (Biolegend, 640934) according to the manufacturer's instruction. Before the flow cytometric analysis, the precision count beads (Biolegend, 424902) were added to count the absolute live cell numbers. Flow cytometry was performed within one hour on an Aria III (BD Biosciences) or FACSVerse (BD Biosciences). Data were analyzed using FlowJo software (FlowJo LLC).

[2] = tested on: naturally occurring senescent cells of aged mice; assay: SSK1 treatment of naturally aged mice (senescent cells, SASP, physical function, RNA-seq); assay type: in vivo, C57BL/6 mice
Experimental: All drugs were mixed in 90% PBS, 5% Tween-80 (P1754, Sigma), and 5% polyethylene glycol (PEG) (81172, Sigma) and administered to mice by intraperitoneal (i.p.) injection. For treating bleomycin-injured young mice, SSK1 (0.5 mg/kg) or vehicle were given consecutive two days every week for five weeks. For old mice (20-month-old), SSK1 (0.5 mg/kg), gemcitabine (0.5 mg/kg) or vehicle were administrated for continued 3 days every two weeks. Gemcitabine was purchased from MCE.
Cultured cells were washed once with PBS and fixed in β-galactosidase staining fix solution for 15 min at room temperature. Cells were then washed three times with PBS and incubated with β-galactosidase staining solution (Beyotime Biotechnology) for 16-20 hours at 37° C. For 12-well plates, 1 ml of β-galactosidase staining solution was added to each well. The plate was sealed with Parafilm to prevent evaporation of the staining medium. After the overnight incubation, cells were washed with PBS and observed under a bright field microscope. For β-galactosidase staining of frozen sections, the frozen sections were dried at 37° C. for 20-30 min and then fixed in β-galactosidase staining fix solution for 15 min at room temperature. The frozen sections were washed three times with PBS and incubated with β-galactosidase staining solution overnight at 37° C. After completion of β-galactosidase staining, the sections were stained with eosin for 1-2 min, rinsed under running water for 1 min, differentiated in 1% acid alcohol for 10-20 sec, and washed again under running water for 1 min. Sections were dehydrated in increasing concentrations of alcohols and cleared in xylene. Excess xylene was drained and a coverslip was placed over the section. After drying, the sample was observed under a microscope.
Lung, liver, and kidney frozen sections stained with SA-β-Gal were quantified by ImageJ software (NIH) to measure the SA-β-Gal positive area. The total area was quantified by eosin positive area with ImageJ software (NIH). The relative positive SA-β-Gal positive cells were calculated with the SA-β-Gal positive area divided by the total area. Each mouse was measured with 3-5 regions.
Mouse liver tissues were fixed in 4% paraformaldehyde (DingGuo, AR-0211) for 24 h at room temperature and dehydrated with graded sucrose solution (20% and 30% respectively 24 h) before embedded in OCT compound (Sakura) for cryosection. The embedded tissues were cut and affixed on slides. Before immunohistochemical staining, the sections were fixed in 4% paraformaldehyde (DingGuo, AR-0211) at room temperature for 15 min and blocked with PBS containing 0.25% Triton X-100 (Sigma-Aldrich, T8787) and 2% normal donkey serum (Jackson ImmunoResearch Laboratories, 017-000-121) at room temperature for 1 h. Samples for immunofluorescence staining were incubated with primary antibody: anti-F4/80 antibody (Abcam, ab6640) at 4° C. overnight, washed three times with PBS and then incubated with appropriate secondary antibodies: Alexa Fluor® 488 AffiniPure Donkey Anti-Rat IgG (H+L) (Jackson ImmunoResearch Laboratories, 712-545-150) for 1.5 h at 37° C. Nuclei were stained with Hoechst 33342 (Sigma-Aldrich, B2261).
For quantification of F4/80 positive cells, images were randomly taken at 20× magnification at the same exposure using confocal laser endomicroscopy (LSM 710 NLO &DuoScan System) and then analyzed by ImageJ. Each mouse was measured with at least 6-10 regions.
Total RNA was isolated using the Direct-zol RNA MiniPrep Kit (Zymo Research, R2072). RNA was treated with DNase and converted to cDNA using TransScript First-Strand cDNA Synthesis SuperMix (TransGen Biotech, AT311-03). qPCR was performed using Kapa SYBR® FAST qPCR Kit Master Mix (Kapa Biosystems, KM4101) on a CFX Connect™ Real-Time System or CFX96™ Real-Time System (Bio-Rad). Data were analyzed using the 2^(−ΔΔCt) method. Gapdh was used as a control to normalize the expression of target genes. […]

[3] = tested on: senescent human umbilical vein endothelial cells (HUVECs); assay: Cell viability, senescent and non-senescent HUVECs; assay type: cell-based; settings: replication-induced senescent vs non-senescent HUVECs; increasing doses
From the text: For replication-induced senescence, cells were passaged until they lost the ability to proliferate and became senescent. NBFs were used as senescent cells after approximately 8-9 passages or 12 population doublings. HEFs were used after approximately 35 passages or 50 population doublings. HUVECs were senescent after approximately 18 passages or 24 population doublings.
To test the viability of senescent and non-senescent cells treated with SSK1, cells were stained with a mixture of Hoechst 33342 and propidium iodide (PI) (CA1120, Solarbio) to distinguish living and dead cells. After treatment with the small molecules, the cell culture medium was removed, and the cells were washed once with PBS. Then, the cells were stained according to the manufacturer's protocol, where the final concentrations of Hoechst 33342 and PI were 5 μg/ml and 2 μg/ml in PBS buffer. The plate was incubated at 4° C. for 30 min and observed on a fluorescence microscope or automatic cell imaging system. Viable cells were quantified using a MD Image Xpress Micro XL (Molecular Devices).

[4] = 20-month-old mice, SSK1 0.5 mg/kg i.p. intermittently for 8 weeks
[5] = aged mice, SSK1 0.5 mg/kg vs vehicle
[6] = old female mice, 8 weeks, vs vehicle

## CC(=O)OCC1O[C@@H](Oc2ccc(COC(=O)Nc3ccn([C@@H]4O[C@H](CO)C(O)C4(F)F)c(=O)n3)cc2[N+](=O)[O-])C(OC(C)=O)C(OC(C)=O)[C@H]1OC(C)=O (some centres unmarked) [SSK1]
[1]
  Apoptosis (annexin V / PI): induced apoptosis in senescent cells
[2]; [4]
  Elimination of β-gal-positive senescent cells vs vehicle, kidney: 3.5 fold
  Elimination of β-gal-positive senescent cells vs vehicle, liver: 5.9 fold
  Elimination of β-gal-positive senescent cells vs vehicle, lung: 2 fold
[2]; aged livers vs vehicle
  GO pathways related to liver function (oxidation-reduction process, metabolic process, fatty acid beta-oxidation, mitochondrion): up-regulated
[2]; aged mice livers and kidneys vs vehicle
  Genes associated with inflammatory response, TNFα signaling via NF-κB, IL6 JAK Stat3 signaling and complement (GSEA): down regulated
[2]; aged mice vs vehicle
  Age-associated signature (GSEA) in aged livers and kidneys: decreased
  Expression of senescent markers p16 (in liver) and p21 (in liver and kidney), RT-qPCR: decreased expression
  Inflammatory factors IL1α and IL1β in aged liver and IL6 in aged kidneys, RT-qPCR: decreased
[2]; aged mice, SSK1 0.5 mg/kg
  F4/80 positive macrophages infiltration in livers (immunofluorescence): could delete macrophages infiltration
[2]; [5]
  Gene signature associated with senescence (GSEA), livers and kidneys: downregulate
  Secretion of SASP factors IL1α, IL6, CXCL1 and TNFα in serum (ELISA): decreased secretion
[2]; aged mice, FIG. 4J
  Rotarod, treadmill, and grip strength functions vs other senolytic drugs (fisetin, 17-DMAG, ABT263, dasatinib and quercetin): improved the rotarod, treadmill, and grip strength functions when compared to the other senolytic compounds
[2]; old female mice, 8 weeks
  Body weight: without significant effect on body weight
[2]; [6]
  Balance beam crossing time: decreased
  Grip strength: significantly increased
  Maximal rotarod time: significantly increased
  Rearing exploration times: significantly increased
  Treadmill distance: significantly increased
[2]; old male mice, SSK1 0.5 mg/kg vs vehicle
  Rotarod, treadmill, and grip strength performance: same results were also observed
[2]; old mice vs vehicle
  Liver fibrosis (Masson fibrosis staining): attenuate liver fibrosis
[2]; old mice, SSK1 0.5 mg/kg
  Rotarod and treadmill performance after vs before treatment: improved over the initial state before treatment
[3]
  Selective killing of senescent cells (viability): selectively killed by SSK1
